Marks after values point to notes of the source that are not given here. Ends that are not written are not given here. Peptide text beside a SMILES is read from it.

The test system of experiment [1] is human hepatitis B virus (HBV), 2.2.15 cell line. Briefly: Test 2: inhibition of HBV-DNA in 2.2.15 cells (fluorescence quantitative PCR). Format: cell-based. The settings on record: 160 μg/ml. The method, then:
The preparation and incubation of cell suspension was repeated as in test 1 above, but at the peptide concentration of 160 μg/ml.

Experiment [2] shares this test system. Briefly: Test 1: inhibition of HBsAg and HBeAg in 2.2.15 cells (ELISA). Particulars: 400 μg/ml. Format: cell-based. Here is the method: 2.2.15 cells at log phase were harvested and adjusted to 2×10^6/ml with MEM (containing 10% fetal bovine serum, […]). The suspension was inoculated on a 24-well culture plate with 1.5 ml per well, and incubated at 37° C., 5% CO2 for 48 hours for attachment. The peptides were added to the final concentration of 400 μg/ml with 3 parallel wells per sample. One set of blank control (3 wells) was also prepared, in which the peptide was replaced with culture medium. The plate was incubated at 37° C. for 4 days, the culture medium was then exchanged with freshly prepared medium (of the same composition as the original), and the plate was incubated for a further 4 days. By the end of incubation, the supernatants of the culture were collected, and the titers of HBsAg and HBeAg were determined by ELISA method according to the instruction of the detection kit manufacturer.
Background: An ELISA detects its analyte on a solid surface through an enzyme-linked reagent.

Experiment [3] deals with carrageenin induced foot swelling. Nature of the experiment: carrageenin induced foot swelling in rats. The experiment is classed as in vivo, Wistar rats. Here is the method:
Wistar rats were divided randomly into DXM group (0.2 mg/kg/day), saline control group (1 ml/day), and three dosages of CMS-030 groups (2, 10, 20 μg/ml/day). All of the drugs were diluted to 0.5 ml with saline, and were administered intraperitoneally (i.p) daily. Two weeks after drug administration, 0.15 ml of 1% carrageenin saline solution was applied to the right foot by subcutaneous injection. 0.5 hr later, the circumference of right foot was measured precisely, and foot swelling was calculated by subtracting the pre-challenge circumference from the post-challenge value Inhibition index (%)=(foot swelling of saline control group−foot swelling of drug group)/foot swelling of saline control group×100%.

Experiment [4] concerns skin allograft. Briefly: survival of skin allograft in mice (CMS-014). The experiment is classed as in vivo, Balb/c mice (C57BL/6 donors). The method, then:
Half of the mice were male and half were female.
The test substances were dissolved in 0.5 ml saline and intraperitoneally injected for 5 days before the skin transplantation, followed by daily injection until the end point of rejection of the skin graft.
A patch of hair at the back of Balb/c mice was removed by 8% Na2S solution. On the next day, a wound bed of approximately 1 cm^2 was produced by removing the skin surgically, and then a piece of full-thickness tail skin of 1 cm^2 from sex-matched donor C57BL/6J mice was placed onto the wound bed. The surgical site was covered and protected with a layer of paraffin gauze, and a covering plaster was applied. The plaster was removed 6 days after transplantation^[1], and the recipient mice were monitored daily for the viability of the allograft. The end point of rejection was taken as only less than 10% of the allograft remained viable^[2].

Experiment [5] concerns duck hepatitis B virus (DHBV). Briefly: Chongqing duck hepatitis B animal model: serum DHBV DNA and DHBsAg. The experiment is classed as in vivo, Chongqing ducks. The method, then: CMS-017 dissolved in saline was applied to Chongqing duck hepatitis B animal model by intramuscular injection for 28 days. The serum levels of DHBV DNA and DHBsAg (duck hepatitis B surface antigen) were observed by serum dot-blot hybridization and ELISA respectively and compared with blank control.
0.1 ml DHBV DNA positive serum (5×10^7 copies/ml) was inoculated into the abdominal cavity of one-day old Chongqing ducks to set up the hepatitis animal model. 10 days after inoculation, blood samples were collected from the external jugular vein and success of infection was confirmed by dot-blot hybridization with DHBV DNA probe labeled with digoxi^[3].
2) CMS-017 group (n=12): 200 μg/kg/day CMS-017 (dissolved in 1 ml normal saline) applied by intramuscular injection, once per day.
The treatment lasted for 4 weeks, and observation continued for another one week after termination of treatment. 1 ml blood samples were drawn from the external jugular vein on days 0, 7, 14, 21, 28, and 35 from the start of treatment. The sera were isolated^[4] and stored at −20° C. until analysis.
DHBV DNA probe was fluorescent-labeled according to the labeling kit protocol from the manufacturer (Roche Co.). Duck sera were dot-blotted (2 dot per sample) onto nitrocellulose membrane and hybridized with fluorescent-labeled probe for DHBV DNA quantitation^[3]. DHBV DNA 40 μl+DHBsAg 100 μl was used as internal standard. CDP-Star fluorimetry reagent was used for amplification of the fluorescence. Vuego Scan (Brisa-620st) scanner was used for film scanning, and Discovery Series Quantity One software for quantitative analysis of the blots. The blot value was described as “volume” (volume=intensity×mm^2)
DHBsAg level was determined by ELISA method^[5-8], and the O.D value was obtained by ELISA reader (Bio-TEK Co.) at 490 nm.

Setting [6] is: human hepatitis B virus, 2.2.15 cell line, 48 h.
Where [7] appears, read: 0.5 hr after carrageenin, 0.2 mg/kg/d.
Where [8] appears, read: Week 5 (one week after termination of treatment).

In the case of `C[C@H](N)C(=O)N[C@@H](C)C(=O)N[C@@H](Cc1ccccc1)C(=O)O` [CMS-023, Ala Ala Phe] (H-Ala-Ala-Phe-OH; N-terminus and C-terminus assumed), the “% HBV-DNA inhibition” value in experiment [1] (human hepatitis B virus, 2.2.15 cell line) came out at 70.8%*. In experiment [2] (setting [6]), the “Inhibition ratio to HBeA” value is given as 53.7%* and the “Inhibition ratio to HBsA:” value turned out to be 58.4%*.
`C[C@@H]1C[C@H]2[C@@H]3CCC4=CC(=O)C=C[C@]4(C)[C@@]3(F)[C@@H](O)C[C@]2(C)[C@@]1(O)C(=O)CO` [DXM, Dexamethasone]: in experiment [3] (setting [7]), the “Inhibition Index 0.5 hr” value is listed as 63.0** % and the “Swelling 0.5 hr” value is 2.74 ± 0.10 cm. The compound also gave a Pre-challenge circumference in experiment [3] (right foot, 0.2 mg/kg/d i.p., two weeks) of 2.49 ± 0.05 cm.
With AAHHPDDFNPSV [CMS-014], the “MST (mean survival time of skin allograft)” value is on record as 10.0 ± 0.5 days in experiment [4] (125 μg/kg/day i.p.), 9.8 ± 0.5 days in experiment [4] (250 μg/kg/day i.p.) and 9.8 ± 0.4 days in experiment [4] (500 μg/kg/day i.p.).
With “IVTNTT [CMS-017, Ile-Val-Thr-Asn-Thr-Thr]”, the “Serum DHBV DNA titer” value in experiment [5] (Pre-treatment, 200 μg/kg/day i.m. group) was 2207.0 ± 237.5 volume; in experiment [5] (Week 1, 200 μg/kg/day i.m.) it was 1991.8 ± 378.9 volume; in experiment [5] (Week 2, 200 μg/kg/day i.m.), 1925.0 ± 549.9 volume; in experiment [5] (Week 3, 200 μg/kg/day i.m.), 1743.9 ± 555.0 volume; in experiment [5] (Week 4, 200 μg/kg/day i.m.), 1544.9 ± 389.7 volume; in experiment [5] (setting [8]), 1742.7 ± 437.0 volume. Besides, the “Serum DHBsAg O.D. value” in experiment [5] (Pre-treatment, 200 μg/kg/day i.m. group, 490 nm) stood at 0.928 ± 0.402; in experiment [5] (Week 1, 200 μg/kg/day i.m.) it was 0.761 ± 0.328; in experiment [5] (Week 2, 200 μg/kg/day i.m.), 0.668 ± 0.310; in experiment [5] (Week 3, 200 μg/kg/day i.m.), 0.551 ± 0.268; in experiment [5] (Week 4, 200 μg/kg/day i.m.), 0.479 ± 0.279; in experiment [5] (setting [8]), 0.488 ± 0.182. Besides, the “rebound of serum DHBV DNA and DHBsAg” value in experiment [5] (upon discontinuation of treatment for 7 days) is “rebound was not observed”. The “% HBV-DNA inhibition” value in experiment [1] (2.2.15 cells) was 90.8%*. The “Inhibition ratio to HBeA” value in experiment [2] (2.2.15 cells, 8 days) was 62.2%*. Also, the “Inhibition ratio to HBsA:” value in experiment [2] (2.2.15 cells, 8 days) came to 68.6%*.

The record behind these values is patent US8658592B2, “Biologically active peptides and their new uses” (priority 2005, dated 2014).
